This note sets out measurements from US11974572B2, “Fungicidal compositions” (SYNGENTA PARTICIPATIONS AG, priority 2017, dated 2024).

One series relates to Phakopsora pachyrhizi. Kind of series: Example A3: Phakopsora pachyrhizi / soybean / leaf disc preventative (Asian soybean rust). It is filed as in vivo. As to conditions: foliar, 200 ppm in the applied formulation, soybean leaf disks, compared to untreated control leaf disks, read-out: disease control. How it is done: (§1) Leaf disks or leaf segments of various plant species are cut from plants grown in a greenhouse. The cut leaf disks or segments are placed in multiwell plates (24-well format) onto water agar. The leaf disks are sprayed with a test solution before (preventative) or after (curative) inoculation. Compounds to be tested are prepared as DMSO solutions (max. 10 mg/ml) which are diluted to the appropriate concentration with 0.025% Tween20 just before spraying. The inoculated leaf disks or segments are incubated under defined conditions (temperature, relative humidity, light, etc.) according to the respective test system. A single evaluation of disease level is carried out 3 to 14 days after inoculation, depending on the pathosystem. Percent disease control relative to the untreated check leaf disks or segments is then calculated.
Soybean leaf disks are placed on water agar in multiwell plates (24-well format) and sprayed with the formulated test compound diluted in water. One day after application leaf discs are inoculated by spraying a spore suspension on the lower leaf surface. […] The activity of a compound is assessed as percent disease control compared to untreated when an appropriate level of disease damage appears in untreated check leaf disks (12 to 14 days after application). […]

The subject of series [1] is Puccinia recondita f. sp. tritici. Put plainly: Example A2: Puccinia recondita f. sp. tritici / wheat / leaf disc curative (brown rust). As to conditions: foliar, 200 ppm in the applied formulation, wheat leaf segments, compared to untreated control leaf disks, read-out: disease control. It is filed as in vivo. How it is done: as §1
Wheat leaf segments cv. Kanzler are placed on agar in multiwell plates (24-well format). The leaf segments are then inoculated with a spore suspension of the fungus. […] The leaf segments were incubated at 19° C. and 75% relative humidity under a light regime of 12 hours light/12 hours darkness in a climate cabinet and the activity of a compound was assessed as percent disease control compared to untreated when an appropriate level of disease damage appears in untreated check leaf segments (6 to 8 days after application). […]

Series [2] has the same test system. Put plainly: Example A1: Puccinia recondita f. sp. tritici / wheat / leaf disc preventative (brown rust). Format: in vivo. The following applies: foliar, 200 ppm in the applied formulation, wheat leaf segments, compared to untreated control leaf disks, read-out: disease control. How it is done:
as §1
Wheat leaf segments cv. Kanzler were placed on agar in multiwell plates (24-well format) and sprayed with the formulated test compound diluted in water. […] The inoculated leaf segments were incubated at 19° C. and 75% relative humidity (rh) under a light regime of 12 hours light/12 hours darkness in a climate cabinet and the activity of a compound was assessed as percent disease control compared to untreated when an appropriate level of disease damage appears in untreated check leaf segments (7 to 9 days after application). […]

Series [3] has as its system Glomerella lagenarium (Colletotrichum lagenarium). Kind of series: Example A4: Glomerella lagenarium (Colletotrichum lagenarium) liquid culture / cucumber / preventative (anthracnose). As to conditions: Colletotrichum orbiculare, 20 ppm in the applied formulation, compared to untreated control, read-out: disease control. Format: cell-based. The method, then: Mycelia fragments or conidia suspensions of a fungus prepared either freshly from liquid cultures of the fungus or from cryogenic storage, are directly mixed into nutrient broth. DMSO solutions of the test compound (max. 10 mg/ml) are diluted with 0.025% Tween20 by a factor of 50 and 10 μl of this solution is pipetted into a microtiter plate (96-well format). The nutrient broth containing the fungal spores/mycelia fragments is then added to give an end concentration of the tested compound. The test plates are incubated in the dark at 24° C. and 96% relative humidity. The inhibition of fungal growth is determined photometrically after 2 to 7 days, depending on the pathosystem, and percent antifungal activity relative to the untreated check is calculated.
Conidia of the fungus from cryogenic storage are directly mixed into nutrient broth (PDB—potato dextrose broth). After placing a (DMSO) solution of test compound into a microtiter plate (96-well format), the nutrient broth containing the fungal spores is added.
The following compounds at 20 ppm in the applied formulation give at least 80% disease control in this test when compared to untreated control under the same conditions, which show extensive disease development.

Each structure is given as a SMILES string.

`COCC(=O)N(Cc1ccc(-c2noc(C(F)(F)F)n2)cc1)CC(F)(F)F` [X.09, 2-methoxy-N-(2,2,2-trifluoroethyl)-N-[[4-[5-(trifluoromethyl)-1,2,4-oxadiazol-3-yl]phenyl]methyl]acetamide]: the melting point lay within 92.6 to 94.3 °C.
On the same count and under the same terms, the value for `CON(Cc1ccc(-c2noc(C(F)(F)F)n2)cc1)C(=O)NC1CC1` [X.15, 3-cyclopropyl-1-methoxy-1-[[4-[5-(trifluoromethyl)-1,2,4-oxadiazol-3-yl]phenyl]methyl]urea] was 84 to 87 °C; that for `CCONC(=O)N(Cc1ccc(-c2noc(C(F)(F)F)n2)cc1)OC` [X.16, 3-ethoxy-1-methoxy-1-[[4-[5-(trifluoromethyl)-1,2,4-oxadiazol-3-yl]phenyl]methyl]urea] was 107 to 110 °C.
Same read-out and setting: the result for `C=CCNC(=O)N(Cc1ccc(-c2noc(C(F)(F)F)n2)cc1)OC` [X.17, 3-allyl-1-methoxy-1-[[4-[5-(trifluoromethyl)-1,2,4-oxadiazol-3-yl]phenyl]methyl]urea] reads 64 to 70 °C; that for `CON(Cc1ccc(-c2noc(C(F)(F)F)n2)cc1)C(=O)NC(C)C` [X.19, 3-isopropyl-1-methoxy-1-[[4-[5-(trifluoromethyl)-1,2,4-oxadiazol-3-yl]phenyl]methyl]urea], 106 to 107.3 °C; that for `C#CCNC(=O)N(Cc1ccc(-c2noc(C(F)(F)F)n2)cc1)OC` [X.20, 1-methoxy-3-prop-2-ynyl-1-[[4-[5-(trifluoromethyl)-1,2,4-oxadiazol-3-yl]phenyl]methyl]urea], 88.9 to 90.6 °C.
Turning to `CN(Cc1ccc(-c2noc(C(F)(F)F)n2)cc1)C(=O)NCC1CC1` [X.22, 3-(cyclopropylmethyl)-1-methyl-1-[[4-[5-(trifluoromethyl)-1,2,4-oxadiazol-3-yl]phenyl]methyl]urea], the pest or weed control at 200 ppm (in the series with Phakopsora pachyrhizi; in series [1]; in series [2]) was at least 80% each time. The inhibition of growth at 20 ppm in series [3] was at least 80%.
On to `CCN(Cc1ccc(-c2noc(C(F)(F)F)n2)cc1)C(=O)NCC(F)(F)F` [X.23, 1-ethyl-3-(2,2,2-trifluoroethyl)-1-[[4-[5-(trifluoromethyl)-1,2,4-oxadiazol-3-yl]phenyl]methyl]urea], for which the pest or weed control at 200 ppm (in the series on Phakopsora pachyrhizi; in series [1]; in series [2]) was at least 80% throughout. For the same compound, in series [3], the inhibition of growth at 20 ppm is at least 80%.

By melting point is commonly meant the temperature, or range, at which the solid turns liquid.
